Test results published in patent US20070093524A1, “5-Lipoxygenase modulators” (Wyeth, priority 2005, published 2007).

Experiments:
5-LO mRNA = experiment: Downregulation of 5-LO gene expression (5-LO mRNA by real-time RT-PCR) in acetylated-LDL-stimulated macrophage cell lines; format: cell-based, human and mouse; settings: macrophage cell line (THP-1 or J774, not specified); for inhibition at 0.1 µM: 0.1 uM compound; for inhibition at 0.3 µM: 0.3 uM compound; for inhibition at 1 µM: 1.0 uM compound; for inhibition at 3 µM: 3.0 uM compound
Method: A panel of LXR or PPAR modulator compounds was tested to determine whether they could downregulate 5-LO gene expression. The compounds were individually tested to determine whether they could downregulate 5-LO gene expression in human and mouse macrophage cell lines.
Preparation of Acetylated LDL: LDL was dialyzed with 500 mL phosphate buffered saline (PBS) three times. 2.5 mL of dialyzed LDL was mixed with 2.5 mL of saturated sodium acetate with continuous stirring in an ice-water bath. Acetic anhydride was added in 7 times 7.5 μL over a period of 1 hour with continuous stirring. Then, the mixture was stirred for an additional 1 hour. The solution was dialyzed against 500 mL PBS containing 0.3 mM EDTA three times. The protein concentration is determined using Bio-Rad DC protein assay kit.
Cell Culture and Compound Treatment: Human THP-1 cells were maintained in RPMI 1640 medium containing 10% Fetal Bovine Serum (FBS), 25 mM Hepes buffer, […] Genamicin, 1 mM Sodium pyruvate, and 50 μM β-mercaptoethanol. THP-1 cells were differentiated with 75 ng/mL phorbal 12,13-dibutyrate (PDBu) three days prior to assay to induce differentiation of the cells into adherent macrophages. Cells were seeded in 12 well plates in 1 mL of complete media. Each well contained 400,000 cells. The cells were stimulated with RPMI 1640 medium (1% FBS) containing 100 μg/mL acetylated-LDL in presence of phorbol ester for 48 hours, including several wells without acetylated-LDL treatment as a control. The medium was then changed to RPMI 1640 medium without FBS, plus the test compounds with phorbol ester for 48 hours. Control cells were not incubated with test compounds. The cells were incubated at 37° C. in a humidified CO2 incubator. The cells were then ready for RNA extraction.
Murine J774 cells were maintained in DMEM (high glucose) containing 10% FBS, 100 units/mL penicillin, and 100 μg/mL streptomycin. Six hours prior to assay, J774 cells were seeded into 96-well plates in 150 μL complete media. Each well contains 75,000 cells. The cells were stimulated with DMEM-high glucose (1% FBS) containing 100 μg/mL acetylated-LDL for 24 to 48 hours, including several wells without acetylated-LDL treatment as a control. The media was then changed to DMEM-high glucose (without FBS) plus the test compounds for 24 to 48 hours. Compounds were dosed in DMSO vehicle and control cells were treated with vehicle alone. The cells were incubated at 37° C. in a humidified CO2 incubator. The cells were then ready for RNA isolation.
RNA analysis: Total RNA was isolated from the THP-1 cells by using a QIAGEN RNeasy Mini Kit. Real-time quantitative RT-PCR assays were performed using an Applied Biosystems 7900 sequence detector. Each amplification mixture (50 μL) contained 50-100 ng of total RNA, 200 nM forward primer, 200 nM reverse primer, and 200 nM dual-labeled fluorogenic probe. The RT-PCR reagent is from QIAGEN (QuantiTect Probe RT-PCR kit). The RT-PCR thermocycling parameters were 48° C. for 30 minutes, 95° C. for 10 minutes, and 40 cycles at 95° C. for 15 seconds and 55° C. for 1 minute. The samples, no-RT controls, and serially diluted RNA standards were analyzed in parallel. The 5-LO target gene was analyzed and normalized for human glyceraldehyde-3-phosphate dehydrogenase (GAPDH) expression using probe and primers from predeveloped assays for GAPDH (Applied Biosystems). Quantitative analysis was performed using the threshold procedure, and relative amounts were calculated from the standard curve.
Total RNA from the J774 cells was isolated by using the ABI 6100 RNA isolation system for 96-well plates (the THP-1 cells can also be cultured and tested in 96-well plates). Real-time quantitative RT-PCR assays were performed using an Applied Biosystems 7900 sequence detector. Each amplification mixture (50 μL) contained 50-100 ng of total RNA, 200 nM forward primer, 200 nM reverse primer, and 250 nM dual-labeled fluorogenic probe.

SMILES | inhibition at 0.1 µM (5-LO mRNA) [%] | inhibition at 0.3 µM (5-LO mRNA) [%] | inhibition at 1 µM (5-LO mRNA) [%] | inhibition at 3 µM (5-LO mRNA) [%] | melting point [°C]
O=C(O)Cc1ccc(CNc2cccc(-c3c(Cc4ccccc4)cnc4c(C(F)(F)F)cccc34)c2)cc1 [Compound I-1, (4-{[3-(3-Benzyl-8-trifluoromethyl-quinolin-4-yl)-phenylamino]-methyl}-phenyl)-acetic acid] | 91 | 82 | 88 | 83 | 
O=C(O)Cc1ccc(COc2cccc(-c3c(Cc4ccccc4)cnc4c(C(F)(F)F)cccc34)c2)cc1 [Compound I-2, {4-[3-(3-Benzyl-8-trifluoromethyl-quinolin-4-yl)-phenoxymethyl]-phenyl}-acetic acid] | 84 |  | 92 |  | 
O=C(O)Cc1ccc(COc2cccc(-c3c(-c4ccccc4)cnc4c(C(F)(F)F)cccc34)c2)cc1 [Compound I-3, {4-[3-(3-Phenyl-8-trifluoromethyl-quinolin-4-yl)-phenoxymethyl]-phenyl}-acetic acid] | 88 |  | 89 |  | 122
Cc1cnc2c(C(F)(F)F)cccc2c1-c1cccc(OCc2ccc(CC(=O)O)cc2)c1 [Compound I-4, {4-[3-(3-Methyl-8-trifluoromethyl-quinolin-4-yl)-phenoxymethyl]-phenyl}-acetic acid] | 79 |  | 90 |  | 
O=C(O)Cc1ccc(COc2cccc(-c3c(-c4ccccc4)cnc4c(Cl)cccc34)c2)cc1 [Compound I-5, {4-[3-(8-Chloro-3-phenyl-quinolin-4-yl)-phenoxymethyl]-phenyl}-acetic acid] | 87 |  | 91 |  | 
Cc1cnc2c(Cl)cccc2c1-c1cccc(OCc2ccc(CC(=O)O)cc2)c1 [Compound I-6, {4-[3-(8-Chloro-3-methyl-quinolin-4-yl)-phenoxymethyl]-phenyl}-acetic acid] | 62 |  | 81 |  | 
CC(C)(C(=O)O)c1ccc(COc2cccc(-c3c(Cc4ccccc4)cnc4c(C(F)(F)F)cccc34)c2)cc1 [Compound I-7, 2-{4-[3-(3-Benzyl-8-trifluoromethyl-quinolin-4-yl)-phenoxymethyl]-phenyl}-2-methyl-propionic acid] | 87 |  | 88 |  | 
CC(C)(C(=O)O)c1ccc(COc2cccc(-c3c(-c4ccccc4)cnc4c(Cl)cccc34)c2)cc1 [Compound I-8, 2-{4-[3-(8-Chloro-3-phenyl-quinolin-4-yl)-phenoxymethyl]-phenyl}-2-methyl-propionic acid] | 89 |  | 93 |  | 
O=C(O)Cc1ccc(C#Cc2cccc(-c3c(Cc4ccccc4)cnc4c(C(F)(F)F)cccc34)c2)cc1 [Compound I-9, {4-[3-(3-Benzyl-8-trifluoromethyl-quinolin-4-yl)-phenylethynyl]-phenyl}-acetic acid] | 22 |  | 45 |  | 
Cc1cnc2c(C(F)(F)F)cccc2c1-c1cccc(OCc2ccc([C@@H](C)C(=O)O)cc2)c1 [Compound I-10, (2R)-2-{4-[3-(3-Methyl-8-trifluoromethyl-quinolin-4-yl)-phenoxymethyl]-phenyl}-propionic acid] | 86 |  | 83 |  | 
COC(=O)Cc1ccc(CNc2cccc(-c3c(C(=O)c4ccccc4)cnc4c(C(F)(F)F)cccc34)c2)cc1 [Compound I-11, (4-{[3-(3-Benzoyl-8-trifluoromethyl-quinolin-4-yl)-phenylamino]-methyl}-phenyl)-acetic acid methyl ester] |  | 74 |  | 71 | 
NNC(=O)Cc1ccc(CNc2cccc(-c3c(Cc4ccccc4)cnc4c(C(F)(F)F)cccc34)c2)cc1 [Compound I-12, (4-{[3-(3-Benzyl-8-trifluoromethyl-quinolin-4-yl)-phenylamino]-methyl}-phenyl)-acetic acid hydrazide] |  | 71 |  | 76 | 
CCOC(=O)Cc1cccc(CNc2cccc(-c3c(C(=O)c4ccccc4)cnc4c(C(F)(F)F)cccc34)c2)c1 [Compound I-13, (3-{[3-(3-Benzoyl-8-trifluoromethyl-quinolin-4-yl)-phenylamino]-methyl}-phenyl)-acetic acid ethyl ester] |  | 40 |  | 30 | 
CCOC(=O)Cc1ccc(COc2cccc(-c3c(-c4ccccc4)cnc4c(C(F)(F)F)cccc34)c2)cc1 [Compound I-14, {4-[3-(3-Phenyl-8-trifluoromethyl-quinolin-4-yl)-phenoxymethyl]-phenyl}-acetic acid ethyl ester] |  | 81 |  | 84 | 
CCOC(=O)Cc1ccc(COc2cccc(-c3c(Cc4ccccc4)cnc4c(C(F)(F)F)cccc34)c2)cc1 [Compound I-15, {4-[3-(3-Benzyl-8-trifluoromethyl-quinolin-4-yl)-phenoxymethyl]-phenyl}-acetic acid ethyl ester] |  | 79 |  | 76 | 
COc1cc(CNc2cccc(-c3c(Cc4ccccc4)cnc4c(C(F)(F)F)cccc34)c2)ccc1O [Compound I-17, 4-{[3-(3-Benzyl-8-trifluoromethyl-quinolin-4-yl)-phenylamino]-methyl}-2-methoxy-phenol] |  | 41 |  | 53 | 
Oc1cccc(CNc2cccc(-c3c(Cc4ccccc4)cnc4c(C(F)(F)F)cccc34)c2)c1O [Compound I-18, 3-{[3-(3-Benzyl-8-trifluoromethyl-quinolin-4-yl)-phenylamino]-methyl}-benzene-1,2-diol] |  | 63 |  | 58 | 
CCOc1cc(CNc2cccc(-c3c(Cc4ccccc4)cnc4c(C(F)(F)F)cccc34)c2)ccc1O [Compound I-19, 4-{[3-(3-Benzyl-8-trifluoromethyl-quinolin-4-yl)-phenylamino]-methyl}-2-ethoxy-phenol] |  | 22 |  | 60 | 
COC(=O)Cc1ccc(CNc2cccc(-c3c(C)cnc4c(C(F)(F)F)cccc34)c2)cc1 [Compound I-20, (4-{[3-(3-Methyl-8-trifluoromethyl-quinolin-4-yl)-phenylamino]-methyl}-phenyl)-acetic acid methyl ester] |  | 78 |  | 78 | 
COC(=O)C(C)c1ccc(CNc2cccc(-c3c(C)cnc4c(C(F)(F)F)cccc34)c2)cc1 (centres unmarked) [Compound I-21, 2-(4-{[3-(3-Methyl-8-trifluoromethyl-quinolin-4-yl)-phenylamino]-methyl}-phenyl)-propionic acid methyl ester] |  | 78 |  | 63 | 
COC(=O)C(C)(C)c1ccc(CNc2cccc(-c3c(C)cnc4c(C(F)(F)F)cccc34)c2)cc1 [Compound I-22, 2-Methyl-2-(4-{[3-(3-methyl-8-trifluoromethyl-quinolin-4-yl)-phenylamino]-methyl}-phenyl)-propionic acid methyl ester] |  | 67 |  | 55 | 
COC(=O)COc1ccc(COc2cccc(-c3c(-c4ccccc4)cnc4c(C(F)(F)F)cccc34)c2)cc1 [Compound I-23, {4-[3-(3-Phenyl-8-trifluoromethyl-quinolin-4-yl)-phenoxymethyl]-phenoxy}-acetic acid methyl ester] |  | 76 |  | 92 | 
